Experimental data: patent publication US6355799B1, “Substituted benzene compounds, process for their preparation, and herbicidal and defoliant compositions containing them” (ISK Americas Incorporated, priority 1997, dated 2002)

Key:
Format in all cases: in vivo
[1] = system: redroot pigweed (Amaranthus retroflexus, AMARE); experiment: Pre-emerge test, greenhouse herbicide activity screening; conditions: pre-emerge, rated 14 days after application, 0 = no damage, 100 = complete death
In short: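 Compounds in acetone were track-sprayed at 15-1000 g ai/ha (187 l/ha) on sandy loam pots: pre-emerge one day after seeding, post-emerge at 2-3 leaf stage with 0.25% v/v non-ionic surfactant. Phytotoxicity was rated 14 days later on a 0 (no damage) to 100 (complete death) scale.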

[2] = system: barnyardgrass (Echinochloa crus-galli, ECHCG); experiment: as above; conditions: pre-emerge, rated 14 days after application, 0 = no damage, 100 = complete death
In short: (§1)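 Fourteen days after spraying, crop and weed injury was graded visually from 0, no effect, to 100, every plant dead. Test substances were dissolved in acetone and applied at 15–1000 g ai/ha with a flat-fan nozzle. Application was either pre-emergence, one day after sowing, or post-emergence at the 2–3 leaf stage.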

[3] = system: green foxtail (Setaria viridis, SETVI); experiment: as above; conditions: pre-emerge, rated 14 days after application, 0 = no damage, 100 = complete death
In short: as §1

[4] = system: ivyleaf morningglory (Ipomoea hederacea, IPOHE); experiment: as above; conditions: pre-emerge, rated 14 days after application, 0 = no damage, 100 = complete death
In short: as §1

[5] = system: johnsongrass (Sorghum halepense, SORHA); experiment: as above; conditions: pre-emerge, rated 14 days after application, 0 = no damage, 100 = complete death
In short: as §1

[6] = system: lambsquarters (Chenopodium album, CHEAL); experiment: as above; conditions: pre-emerge, rated 14 days after application, 0 = no damage, 100 = complete death
In short: as §1

[7] = system: large crabgrass (Digitaria sanguinalis, DIGSA); experiment: as above; conditions: pre-emerge, rated 14 days after application, 0 = no damage, 100 = complete death
In short: as §1

[8] = system: sicklepod (Cassia obtusifolia, CASOB); experiment: as above; conditions: pre-emerge, rated 14 days after application, 0 = no damage, 100 = complete death
In short: as §1

[9] = system: velvetleaf (Abutilon theophrasti, ABUTH); experiment: as above; conditions: pre-emerge, rated 14 days after application, 0 = no damage, 100 = complete death
In short: as §1

[10] = system: field corn (Zea mays L., var. Dekalb 535, CORN); experiment: Pre-emerge test, crop safety; conditions: pre-emerge, rated 14 days after application, 0 = no damage, 100 = complete death
In short: as §1

[11] = system: upland rice (Oryza sp., var. Tebonnet, RICE); experiment: Pre-emerge test, crop safety; conditions: pre-emerge, rated 14 days after application, 0 = no damage, 100 = complete death
In short: as §1

[12] = system: barnyardgrass (Echinochloa crus-galli, ECHCG); experiment: Post-emerge test, greenhouse herbicide activity screening; conditions: phytotoxicity rating 0-100 (0 no damage, 100 complete death), 14 days after application
In short: (§2)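 Plants grown in 10 cm pots of sandy loam mix received acetone-dissolved compounds through a moving flat-fan nozzle. Doses ranged from 15 to 1000 g ai/ha. Pre-emerge pots were seeded one day earlier, post-emerge pots 8–21 days earlier. Fourteen days on, each pot was graded 0–100 for damage.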

[13] = system: common ragweed (Ambrosia artemisizfolia L., AMBEL); experiment: as above; conditions: phytotoxicity rating 0-100 (0 no damage, 100 complete death), 14 days after application
In short: as §2

[14] = system: green foxtail (Setaria viridis, SETVI); experiment: as above; conditions: phytotoxicity rating 0-100 (0 no damage, 100 complete death), 14 days after application
In short: as §2

[15] = system: ivyleaf morningglory (Ipomoea hederacea, IPOHE); experiment: as above; conditions: phytotoxicity rating 0-100 (0 no damage, 100 complete death), 14 days after application
In short: as §2

[16] = system: johnsongrass (Sorghum halepense, SORHA); experiment: as above; conditions: phytotoxicity rating 0-100 (0 no damage, 100 complete death), 14 days after application
In short: as §2

[17] = system: lambsquarters (Chenopodium album, CHEAL); experiment: as above; conditions: phytotoxicity rating 0-100 (0 no damage, 100 complete death), 14 days after application
In short: as §2

[18] = system: large crabgrass (Digitaria sanguinalis, DIGSA); experiment: as above; conditions: phytotoxicity rating 0-100 (0 no damage, 100 complete death), 14 days after application
In short: as §2

[19] = system: redroot pigweed (Amaranthus retroflexus, AMARE); experiment: as above; conditions: phytotoxicity rating 0-100 (0 no damage, 100 complete death), 14 days after application
In short: as §2

[20] = system: sicklepod (Cassia obtusifolia, CASOB); experiment: as above; conditions: phytotoxicity rating 0-100 (0 no damage, 100 complete death), 14 days after application
In short: as §2

[21] = system: velvetleaf (Abutilon theophrasti, ABUTH); experiment: as above; conditions: phytotoxicity rating 0-100 (0 no damage, 100 complete death), 14 days after application
In short: as §2

[22] = system: field corn (Zea mays L., var. Dekalb 535, CORN); experiment: Post-emerge test, crop safety; conditions: phytotoxicity rating 0-100 (0 no damage, 100 complete death), 14 days after application
In short: as §1

[23] = system: upland rice (Oryza sp., var. Tebonnet, RICE); experiment: Post-emerge test, crop safety; conditions: phytotoxicity rating 0-100 (0 no damage, 100 complete death), 14 days after application
In short: as §1

With `CCOC(=O)C(C)Nc1c(OC)c(Cl)cc(F)c1-n1c(=O)cc(C(F)(F)F)n(C)c1=O` (stereo not shown) [Compound 1-55] the “Pre-emerge Herbicidal Activity AMARE (phytotoxicity rating, scale 0-100)” value ([1]; 63 g ai/ha) was 70, the “Pre-emerge Herbicidal Activity AMARE (phytotoxicity rating, scale 0-100)” value ([1]; 250 g ai/ha) was 70 and the “Pre-emerge Herbicidal Activity ECHCG (phytotoxicity rating, scale 0-100)” value ([2]; 63 g ai/ha) was 10. The “Pre-emerge Herbicidal Activity ECHCG (phytotoxicity rating, scale 0-100)” value ([2]; 250 g ai/ha) was 10, the “Pre-emerge Herbicidal Activity SETVI (phytotoxicity rating, scale 0-100)” value ([3]; 63 g ai/ha) was 0 and the “Pre-emerge Herbicidal Activity SETVI (phytotoxicity rating, scale 0-100)” value ([3]; 250 g ai/ha) was 0. The “Pre-emerge Herbicidal Activity IPOHE (phytotoxicity rating, scale 0-100)” value ([4]; 63 g ai/ha) was 0, the “Pre-emerge Herbicidal Activity IPOHE (phytotoxicity rating, scale 0-100)” value ([4]; 250 g ai/ha) was 0 and the “Pre-emerge Herbicidal Activity SORHA (phytotoxicity rating, scale 0-100)” value ([5]; 63 g ai/ha) was 20. The “Pre-emerge Herbicidal Activity SORHA (phytotoxicity rating, scale 0-100)” value ([5]; 250 g ai/ha) was 20, the “Pre-emerge Herbicidal Activity CHEAL (phytotoxicity rating, scale 0-100)” value ([6]; 63 g ai/ha) was 95 and the “Pre-emerge Herbicidal Activity CHEAL (phytotoxicity rating, scale 0-100)” value ([6]; 250 g ai/ha) was 95. The “Pre-emerge Herbicidal Activity DIGSA (phytotoxicity rating, scale 0-100)” value ([7]; 63 g ai/ha) was 50, the “Pre-emerge Herbicidal Activity DIGSA (phytotoxicity rating, scale 0-100)” value ([7]; 250 g ai/ha) was 50 and the “Pre-emerge Herbicidal Activity CASOB (phytotoxicity rating, scale 0-100)” value ([8]; 63 g ai/ha) was 0. The “Pre-emerge Herbicidal Activity CASOB (phytotoxicity rating, scale 0-100)” value ([8]; 250 g ai/ha) was 0, the “Pre-emerge Herbicidal Activity ABUTH (phytotoxicity rating, scale 0-100)” value ([9]; 63 g ai/ha) was 90 and the “Pre-emerge Herbicidal Activity ABUTH (phytotoxicity rating, scale 0-100)” value ([9]; 250 g ai/ha) was 90. For the same compound, the “Pre-emerge crop damage CORN (phytotoxicity rating, scale 0-100)” value ([10]; 63 g ai/ha) was 10, the “Pre-emerge crop damage CORN (phytotoxicity rating, scale 0-100)” value ([10]; 250 g ai/ha) was 10 and the “Pre-emerge crop damage RICE (phytotoxicity rating, scale 0-100)” value ([11]; 63 g ai/ha) was 0. The “Pre-emerge crop damage RICE (phytotoxicity rating, scale 0-100)” value ([11]; 250 g ai/ha) was 0, the “Post-emerge Herbicidal Activity ECHCG” value ([12]; 63 g ai/ha) was 0 and the “Post-emerge Herbicidal Activity ECHCG” value ([12]; 250 g ai/ha) was 0. For the same compound, the “Post-emerge Herbicidal Activity AMBEL” value ([13]; 63 g ai/ha) was 70, the “Post-emerge Herbicidal Activity AMBEL” value ([13]; 250 g ai/ha) was 50 and the “Post-emerge Herbicidal Activity SETVI” value ([14]; 63 g ai/ha) was 0. The “Post-emerge Herbicidal Activity SETVI” value ([14]; 250 g ai/ha) was 40, the “Post-emerge Herbicidal Activity IPOHE” value ([15]; 63 g ai/ha) was 30 and the “Post-emerge Herbicidal Activity IPOHE” value ([15]; 250 g ai/ha) was 95. For the same compound, the “Post-emerge Herbicidal Activity SORHA” value ([16]; 63 g ai/ha) was 0, the “Post-emerge Herbicidal Activity SORHA” value ([16]; 250 g ai/ha) was 0 and the “Post-emerge Herbicidal Activity CHEAL” value ([17]; 63 g ai/ha) was 0. For the same compound, the “Post-emerge Herbicidal Activity CHEAL” value ([17]; 250 g ai/ha) was 20, the “Post-emerge Herbicidal Activity DIGSA” value ([18]; 63 g ai/ha) was 0 and the “Post-emerge Herbicidal Activity DIGSA” value ([18]; 250 g ai/ha) was 30. For the same compound, the “Post-emerge Herbicidal Activity AMARE” value ([19]; 63 g ai/ha) was 10, the “Post-emerge Herbicidal Activity AMARE” value ([19]; 250 g ai/ha) was 10 and the “Post-emerge Herbicidal Activity CASOB” value ([20]; 63 g ai/ha) was 10. For the same compound, the “Post-emerge Herbicidal Activity CASOB” value ([20]; 250 g ai/ha) was 20, the “Post-emerge Herbicidal Activity ABUTH” value ([21]; 63 g ai/ha) was 80 and the “Post-emerge Herbicidal Activity ABUTH” value ([21]; 250 g ai/ha) was 90. For the same compound, the “Post-emerge Herbicidal Activity CORN (crop damage)” value ([22]; 63 g ai/ha) was 0, the “Post-emerge Herbicidal Activity CORN (crop damage)” value ([22]; 250 g ai/ha) was 10 and the “Post-emerge Herbicidal Activity RICE (crop damage)” value ([23]; 63 g ai/ha) was 0. For the same compound, the “Post-emerge Herbicidal Activity RICE (crop damage)” value ([23]; 250 g ai/ha) was 0.
